Reference: patent publication US20060069132A1, “Azolecarboxamide herbicides” (priority 2004, published 2006)

Legend:
cocklebur = assay: Test C pre-/postemergence herbicide test; type: in vivo, Xanthium strumarium
Summary of the method: (§1)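 Seeds were planted and sprayed preemergence with test chemicals in a non-phytotoxic solvent mixture containing surfactant; postemergence treatments went onto plants 2 to 18 cm tall (1- to 4-leaf stage). After 12 to 14 days in a greenhouse, injury was rated visually against untreated controls on a 0–100 scale.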

corn = assay: Test C pre-/postemergence herbicide test; type: in vivo, Zea mays; settings: preemergence
Summary of the method: as §1

large crabgrass = assay: Test C pre-/postemergence herbicide test; type: in vivo, Digitaria sanguinalis; settings: preemergence
Summary of the method: as §1

eastern black nightshade = assay: Test C pre-/postemergence herbicide test; type: in vivo, Solanum ptycanthum; settings: preemergence
Summary of the method: as §1

yellow nutsedge = assay: Test C pre-/postemergence herbicide test; type: in vivo, Cyperus esculentus; settings: preemergence
Summary of the method: as §1

common ragweed = assay: Test C pre-/postemergence herbicide test; type: in vivo, Ambrosia elatior; design: key to Plant response rating, Ragweed: 0 = no effect, 100 = complete control; settings: preemergence
Summary of the method: as §1

velvetleaf = assay: Test C pre-/postemergence herbicide test; type: in vivo, Abutilon theophrasti; settings: preemergence
Summary of the method: as §1

rice = assay: Test C flooded paddy test; type: in vivo, Oryza sativa; settings: for Plant response rating, Rice: 500 g ai/ha, visual rating after 12 to 14 days
Summary of the method: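 Plants were grown to the 1- to 4-leaf stage (2–18 cm) and then treated postemergence, or grown to the 2-leaf stage for the flooded paddy test. They were held in a greenhouse for 12 to 14 days and then scored by eye against controls, where 0 is no effect and 100 is complete control.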

ducksalad = assay: Test C flooded paddy test; type: in vivo, Heteranthera limosa; settings: for Plant response rating, Ducksalad: 500 g ai/ha, visual rating after 12 to 14 days
barnyardgrass = assay: Test C flooded paddy test; type: in vivo, Echinochloa crus-galli; settings: for Plant response rating, Barnyardgrass: 500 g ai/ha, visual rating after 12 to 14 days
Summary of the method: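 Scoring by eye, 12–14 days post-treatment, greenhouse-held plants vs. controls; 0 no effect, 100 complete control. Sprayed at 1–4 leaves (2–18 cm); paddy barnyardgrass at 2 leaves, flooded.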

[1] = 62 g ai/ha, preemergence, scale 0 to 100
[2] = 250 g ai/ha, scale 0-100, preemergence
[3] = 500 g ai/ha, scale 0 to 100 (0 no effect, 100 complete control), visual, 12 to 14 days
[4] = 125 g ai/ha, scale 0 to 100 (0 no effect, 100 complete control)
[5] = 250 g ai/ha, scale of 0 to 100, 0 is no effect, 100 is complete control
[6] = scale 0 to 100 (0 no effect, 100 complete control)
[7] = 62 g ai/ha, scale 0 to 100 (0 no effect, 100 complete control)
[8] = 125 g ai/ha, scale 0 (no effect) to 100 (complete control), visual, 12 to 14 days

| SMILES | Plant response rating, Cocklebur (cocklebur; [1]) | Plant response rating, Cocklebur (cocklebur; [2]) | Plant response rating, Corn (corn; 62 g ai/ha, scale 0 to 100) | Plant response rating, Corn (corn; 250 g ai/ha, scale 0-100) | Plant response rating, Corn (corn; [3]) | Plant response rating, Crabgrass, Large (large crabgrass; 62 g ai/ha, scale 0 to 100) | Plant response rating, Crabgrass, Large (large crabgrass; 250 g ai/ha, scale 0-100) | Plant response rating, Crabgrass, Large (large crabgrass; [3]) | Plant response rating, Nightshade (eastern black nightshade; 62 g ai/ha, scale 0 to 100) | Plant response rating, Nightshade (eastern black nightshade; 250 g ai/ha, scale 0-100) | Plant response rating, Nightshade (eastern black nightshade; [3]) | Plant response rating, Nutsedge, Yellow (yellow nutsedge; 62 g ai/ha, scale 0 to 100) | Plant response rating, Nutsedge, Yellow (yellow nutsedge; 250 g ai/ha, scale 0-100) | Plant response rating, Nutsedge, Yellow (yellow nutsedge; [3]) | Plant response rating, Ragweed (common ragweed; 62 g ai/ha, scale 0 to 100) | Plant response rating, Ragweed (common ragweed; 250 g ai/ha, scale 0-100) | Plant response rating, Ragweed (common ragweed; [3]) | Plant response rating, Velvetleaf (velvetleaf; 62 g ai/ha, scale 0 to 100) | Plant response rating, Velvetleaf (velvetleaf; [3]) | Rice plant response rating (rice; 62 g ai/ha, scale 0 to 100) | other results |
| --- | --- | --- | --- | --- | --- | --- | --- | --- | --- | --- | --- | --- | --- | --- | --- | --- | --- | --- | --- | --- | --- |
| CCC1=NN(C(C)(C)C)CC1C(=O)Nc1cc(C(=O)N2CC=CC2)ccc1F (racemic) [Compound 340] | 0 | 0 | 5 | 45 | 50 | 50 | 100 | 100 | 60 | 100 | 100 | 0 | 0 | 60 | 0 | 20 | 75 | 0 | 100 | 20 | Plant response rating (0 = no effect, 100 = complete control), Cocklebur (cocklebur; 125 g ai/ha, preemergence): 0; Plant response rating, Cocklebur (cocklebur; 500 g ai/ha, scale 0 to 100 (0 no effect, 100 complete control), visual, 12 to 14 days, preemergence): 40; Plant response rating (0 = no effect, 100 = complete control), Corn (corn; 125 g ai/ha): 45; Plant response rating (0 = no effect, 100 = complete control), Crabgrass, Large (large crabgrass; 125 g ai/ha): 70; Plant response rating (0 = no effect, 100 = complete control), Nightshade (eastern black nightshade; 125 g ai/ha): 90; Plant response rating (0 = no effect, 100 = complete control), Nutsedge, Yellow (yellow nutsedge; 125 g ai/ha): 0; Plant response rating (0 = no effect, 100 = complete control), Ragweed (common ragweed; 125 g ai/ha): 0; Plant response rating (0 = no effect, 100 = complete control), Velvetleaf (velvetleaf; 125 g ai/ha): 60; Plant response rating, Velvetleaf (velvetleaf; 250 g ai/ha, scale 0-100): 95; Rice plant response rating (rice; [4]): 40; Rice plant response rating (rice; [5]): 70; Plant response rating, Rice (rice; [6]): 80; Ducksalad plant response rating (ducksalad; 62 g ai/ha, scale 0 to 100): 50; Ducksalad plant response rating (ducksalad; [4]): 70; Ducksalad plant response rating (ducksalad; [5]): 70; Plant response rating, Ducksalad (ducksalad; [6]): 90; Barnyardgrass plant response rating (barnyardgrass; [7]): 20; Barnyardgrass plant response rating (barnyardgrass; [4]): 50; Barnyardgrass plant response rating (barnyardgrass; [5]): 60; Plant response rating, Barnyardgrass (barnyardgrass; [6]): 70 |
| CCn1nc(C2(C)CC2)cc1C(=O)Nc1cccc(C(=O)N2CC=CC2)c1 [Compound 304] | 0 | 0 | 0 | 15 | 30 | 35 | 100 | 100 | 80 | 100 | 100 | 0 | 0 | 5 | 0 | 70 | 70 | 0 | 60 | 45 | Plant response rating, Cocklebur (cocklebur; 125 g ai/ha, scale 0 (no effect) to 100 (complete control), visual, 12 to 14 days, preemergence): 0; Cocklebur plant response rating (cocklebur; Preemergence, 500 g ai/ha, scale 0 to 100, 0 no effect, 100 complete control): 0; Plant response rating, Corn (corn; [8]): 0; Plant response rating, Crabgrass, Large (large crabgrass; [8]): 100; Plant response rating, Nightshade (eastern black nightshade; [8]): 100; Plant response rating, Nutsedge, Yellow (yellow nutsedge; [8]): 0; Rice plant response rating (rice; [4]): 60; Rice plant response rating (rice; [5]): 70; Plant response rating, Rice (rice; [6]): 75; Ducksalad plant response rating (ducksalad; 62 g ai/ha, scale 0 to 100): 65; Ducksalad plant response rating (ducksalad; [4]): 85; Ducksalad plant response rating (ducksalad; [5]): 95; Plant response rating, Ducksalad (ducksalad; [6]): 95; Barnyardgrass plant response rating (barnyardgrass; [7]): 40; Barnyardgrass plant response rating (barnyardgrass; [4]): 50; Barnyardgrass plant response rating (barnyardgrass; [5]): 85; Plant response rating, Barnyardgrass (barnyardgrass; [6]): 95 |
